From patent US11998539B2, “Substituted aminoquinolones as DGKalpha inhibitors for immune activation” (Bayer Aktiengesellschaft, priority 2019, dated 2024)

Target: DGKα (Homo sapiens (Human), UniProt P23743)
Test: Human DGKα kinase activity inhibition assay (ADP-Glo)
Format: biochemical
Conditions: recombinant full-length human DGKα, 55 μM ATP, 7 μM 1,2-dioleoyl-sn-glycerol, read-out: IC50 values of examples in in vitro human DGKa kinase activity inhibition assays
Description: Human DGKα Kinase Activity Inhibition Assay
Human DGKα inhibitory activity of compounds of the present invention was quantified employing the human DGKα kinase activity assay as described in the following paragraphs. In essence, the enzyme activity was measured by quantification of the adenosine-di-phosphate (ADP) generated as a co-product of the enzyme reaction via the “ADP-Glo™ Kinase Assay” kit from the company Promega. This detection system works as follows: In a first step the ATP not consumed in the kinase reaction is quantitatively converted to cAMP employing an adenylate cyclase (“ADP-Glo-reagent”), then the adenylate cyclase is stopped and the ADP generated in the kinase reaction converted to ATP, which subsequently generates in a luciferase-based reaction a glow-luminescence signal (“Kinase Detection Reagent”).
C-terminally FLAG-tagged, recombinant full-length human DGKα (expressed in baculovirus infected insect cells, purified using anti-Flag pulldown and size exclusion chromatography as described below, DGKa_hu_1) was used as enzyme. As substrate for the kinase 1,2-dioleoyl-sn-glycerol, reconstituted in octyl-β-D-glucopyranoside micelles, was used. […] Then 35 volumes of 50 mM MOPS buffer (pH 7.4) were added to yield a solution of 0.28 mM 1,2 dioleoyl-sn-glycerol and 200 mM […], which was aliquoted, flash-frozen in liquid nitrogen, and stored at −20° C. until use.
For the assay 50 nl of a 100-fold concentrated solution of the test compound in dimethyl sulfoxide (DMSO, Sigma) was pipetted into either a white 1536-well or a white low-volume 384-well microtiter plate (both Greiner Bio-One, Frickenhausen, Germany).

DGKα, sequence (P23743 other isoform, or with tags, fused parts or gaps): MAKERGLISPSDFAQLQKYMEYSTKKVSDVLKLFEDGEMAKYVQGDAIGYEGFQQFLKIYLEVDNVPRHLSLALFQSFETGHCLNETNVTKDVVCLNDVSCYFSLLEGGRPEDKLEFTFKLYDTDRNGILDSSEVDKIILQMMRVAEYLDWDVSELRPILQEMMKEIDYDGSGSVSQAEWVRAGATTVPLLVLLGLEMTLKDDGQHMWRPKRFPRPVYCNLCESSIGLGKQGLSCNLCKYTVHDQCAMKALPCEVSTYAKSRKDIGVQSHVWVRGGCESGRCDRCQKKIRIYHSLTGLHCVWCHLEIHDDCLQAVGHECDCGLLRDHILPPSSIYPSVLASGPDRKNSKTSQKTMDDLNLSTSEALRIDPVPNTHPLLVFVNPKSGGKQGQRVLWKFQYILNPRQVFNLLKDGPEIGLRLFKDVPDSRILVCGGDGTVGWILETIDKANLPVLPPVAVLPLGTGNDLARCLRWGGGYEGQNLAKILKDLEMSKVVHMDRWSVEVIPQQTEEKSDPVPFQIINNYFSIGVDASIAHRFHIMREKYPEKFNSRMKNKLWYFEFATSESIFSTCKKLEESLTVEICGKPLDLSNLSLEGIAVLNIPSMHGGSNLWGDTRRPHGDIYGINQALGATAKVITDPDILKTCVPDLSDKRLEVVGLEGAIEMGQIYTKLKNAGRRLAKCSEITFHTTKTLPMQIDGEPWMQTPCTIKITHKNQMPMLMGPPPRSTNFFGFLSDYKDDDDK

| SMILES | IC50 [nM] |
| --- | --- |
| Cn1c(=O)c(C#N)c(N2CCC(c3cccc(NS(=O)(=O)c4ccccc4)c3)CC2)c2ccccc21 [Example 68, N-{3-[1-(3-cyano-1-methyl-2-oxo-1,2-dihydroquinolin-4-yl)piperidin-4-yl]phenyl}benzenesulfonamide] | 99 |
| Cn1c(=O)c(C#N)c(N2CCC(c3cccc(N=S(C)(C)=O)c3)CC2)c2ccccc21 [Example 69, 4-[4-(3-{[dimethyl(oxo)-A6-sulfanylidene]amino}phenyl)piperidin-1-yl]-1-methyl-2-oxo-1,2-dihydroquinoline-3-carbonitrile] | 105 |
| Cn1c(=O)c(C#N)c(N2CCC(c3cccc4scnc34)CC2)c2ccccc21 [Example 71, 4-[4-(1,3-benzothiazol-4-yl)piperidin-1-yl]-1-methyl-2-oxo-1,2-dihydroquinoline-3-carbonitrile] | 23 |
| Cn1cc(C(=O)C(F)(F)F)c2cc(C3CCN(c4c(C#N)c(=O)n(C)c5ccccc45)CC3)ccc21 [Example 72, 1-methyl-4-{4-[1-methyl-3-(trifluoroacetyl)-1H-indol-5-yl]piperidin-1-yl}-2-oxo-1,2-dihydroquinoline-3-carbonitrile] | 30 |
| Cn1c(=O)c(C#N)c(N2CCC(c3cccc4ccoc34)CC2)c2ccccc21 [Example 73] | 33 |
| Cn1c(=O)c(C#N)c(N2CCC(c3ccc4ccncc4c3)CC2)c2ccccc21 [Example 74] | 48 |
| Cn1c(=O)c(C#N)c(N2CCC(c3cccc4ncsc34)CC2)c2ccccc21 [Example 75, 4-[4-(1,3-benzothiazol-7-yl)piperidin-1-yl]-1-methyl-2-oxo-1,2-dihydroquinoline-3-carbonitrile] | 49 |
| Cn1c(=O)c(C#N)c(N2CCC(c3cccc(NC(=O)c4ccccc4)c3)CC2)c2ccccc21 [Example 76, N-{3-[1-(3-cyano-1-methyl-2-oxo-1,2-dihydroquinolin-4-yl)piperidin-4-yl]phenyl}benzamide] | 50 |
| Cn1c(=O)c(C#N)c(N2CCC(c3cccc4cnccc34)CC2)c2ccccc21 [Example 78, 4-[4-(isoquinolin-5-yl)piperidin-1-yl]-1-methyl-2-oxo-1,2-dihydroquinoline-3-carbonitrile] | 104 |
| Cn1c(=O)c(C#N)c(N2CCC(c3cccc4nccnc34)CC2)c2ccccc21 [Example 79, 1-methyl-2-oxo-4-[4-(quinoxalin-5-yl)piperidin-1-yl]-1,2-dihydroquinoline-3-carbonitrile] | 104 |
| Cn1c(=O)c(C#N)c(N2CCC(c3cccc(S(C)(=O)=O)c3)CC2)c2ccccc21 [Example 80, 4-{4-[3-(methanesulfonyl)phenyl]piperidin-1-yl}-1-methyl-2-oxo-1,2-dihydroquinoline-3-carbonitrile] | 333 |
| Cc1ccccc1C1CCN(c2c(C#N)c(=O)n(C)c3ccccc23)CC1 [Example 82, 1-methyl-4-[4-(2-methylphenyl)piperidin-1-yl]-2-oxo-1,2-dihydroquinoline-3-carbonitrile] | 11 |
| Cc1ccc(C2CCN(c3c(C#N)c(=O)n(C)c4ccccc34)CC2)cc1 [Example 83, 1-methyl-4-[4-(4-methylphenyl)piperidin-1-yl]-2-oxo-1,2-dihydroquinoline-3-carbonitrile] | 4.4 |
| Cn1c(=O)c(C#N)c(N2CCC(c3cc(Cl)cc(Cl)c3)CC2)c2ccccc21 [Example 84, 4-[4-(3,5-dichlorophenyl)piperidin-1-yl]-1-methyl-2-oxo-1,2-dihydroquinoline-3-carbonitrile] | 52 |
| Cn1c(=O)c(C#N)c(N2CCC(c3cccc(Br)c3)CC2)c2ccccc21 [Example 85] | 54 |
| Cn1c(=O)c(C#N)c(N2CCC(c3ccc(C#N)cc3)CC2)c2ccccc21 [Example 86, 4-[4-(4-cyanophenyl)piperidin-1-yl]-1-methyl-2-oxo-1,2-dihydroquinoline-3-carbonitrile] | 54 |
| Cn1c(=O)c(C#N)c(N2CCC(c3cccc(C(F)F)c3)CC2)c2ccccc21 [Example 87, 4-{4-[3-(difluoromethyl)phenyl]piperidin-1-yl}-1-methyl-2-oxo-1,2-dihydroquinoline-3-carbonitrile] | 7.1 |

| SMILES | IC50 [nM] |
| --- | --- |
| Cn1c(=O)c(C#N)c(N2CCC(c3ccc(Br)cc3)CC2)c2ccccc21 [Example 88, 4-[4-(4-bromophenyl)piperidin-1-yl]-1-methyl-2-oxo-1,2-dihydroquinoline-3-carbonitrile] | 47 |
| COc1ccc(C2CCN(c3c(C#N)c(=O)n(C)c4cc(Br)ccc34)CC2)cc1 [Example 89, 7-bromo-4-[4-(4-methoxyphenyl)piperidin-1-yl]-1-methyl-2-oxo-1,2-dihydroquinoline-3-carbonitrile] | 2.1 |
| Cn1c(=O)c(C#N)c(N2CCC(c3ccccc3)CC2)c2ccc(Br)cc21 [Example 90, 7-bromo-1-methyl-2-oxo-4-(4-phenylpiperidin-1-yl)-1,2-dihydroquinoline-3-carbonitrile] | 5.5 |
| COc1ccc(C2CCN(c3c(C#N)c(=O)n(C)c4cc(C)ccc34)CC2)cc1 [Example 91, 4-[4-(4-methoxyphenyl)piperidin-1-yl]-1,7-dimethyl-2-oxo-1,2-dihydroquinoline-3-carbonitrile] | 3.1 |
| COc1ccc(C2CCN(c3c(C#N)c(=O)n(C)c4cc(-c5ccccc5)ccc34)CC2)cc1 [Example 92, 4-[4-(4-methoxyphenyl)piperidin-1-yl]-1-methyl-2-oxo-7-phenyl-1,2-dihydroquinoline-3-carbonitrile] | 9.8 |
| COc1ccc(C2CCN(c3c(C#N)c(=O)n(C)c4cc(C#N)ccc34)CC2)cc1 [Example 93, 4-[4-(4-methoxyphenyl)piperidin-1-yl]-1-methyl-2-oxo-1,2-dihydroquinoline-3,7-dicarbonitrile] | 11 |
| COc1ccc(C2CCN(c3c(C#N)c(=O)n(C)c4cc(N5CCCC5=O)ccc34)CC2)cc1 [Example 96, 4-[4-(4-methoxyphenyl)piperidin-1-yl]-1-methyl-2-oxo-7-(2-oxopyrrolidin-1-yl)-1,2-dihydroquinoline-3-carbonitrile] | 20 |
| COc1ccc(C2CCN(c3c(C#N)c(=O)n(C)c4cc(C5COC5)ccc34)CC2)cc1 [Example 97, 4-[4-(4-methoxyphenyl)piperidin-1-yl]-1-methyl-7-(oxetan-3-yl)-2-oxo-1,2-dihydroquinoline-3-carbonitrile] | 33 |
| COc1ccc(C2CCN(c3c(C#N)c(=O)n(C)c4cc(N=S(C)(C)=O)ccc34)CC2)cc1 [Example 99, 7-{[dimethyl(oxo)-λ^6-sulfanylidene]amino}-4-[4-(4-methoxyphenyl)piperidin-1-yl]-1-methyl-2-oxo-1,2-dihydroquinoline-3-carbonitrile] | 64 |
| COc1ccc(C2CCN(c3c(C#N)c(=O)n(C)c4cc(C5=CCOCC5)ccc34)CC2)cc1 [Example 100, 7-(3,6-dihydro-2H-pyran-4-yl)-4-[4-(4-methoxyphenyl)piperidin-1-yl]-1-methyl-2-oxo-1,2-dihydroquinoline-3-carbonitrile] | 2.3 |
| Cn1c(=O)c(C#N)c(N2CCC(c3cccc4occc34)CC2)c2ccccc21 [Example 101, 4-[4-(1-benzofuran-4-yl)piperidin-1-yl]-1-methyl-2-oxo-1,2-dihydroquinoline-3-carbonitrile] | 12 |
| CC(C)Oc1ccc(C2CCN(c3c(C(N)=O)c(=O)n(C)c4ccccc34)CC2)cc1 [Example 102, 1-methyl-2-oxo-4-(4-{4-[(propan-2-yl)oxy]phenyl}piperidin-1-yl)-1,2-dihydroquinoline-3-carboxamide] | 0.3 |
| CC(C)c1ccc2oc(C3(C)CCN(c4c(C(N)=O)c(=O)n(C)c5ccccc45)CC3)nc2c1 [Example 103, 1-methyl-4-{4-methyl-4-[5-(propan-2-yl)-1,3-benzoxazol-2-yl]piperidin-1-yl}-2-oxo-1,2-dihydroquinoline-3-carboxamide] | 0.6 |
| Cn1c(=O)c(C(N)=O)c(N2CCC(c3nc4ccccc4o3)CC2)c2ccc(Br)cc21 [Example 104, 4-[4-(1,3-benzoxazol-2-yl)piperidin-1-yl]-7-bromo-1-methyl-2-oxo-1,2-dihydroquinoline-3-carboxamide] | 0.6 |
| Cn1c(=O)c(C(N)=O)c(N2CCC(C)(c3nc4ccccc4o3)CC2)c2ccccc21 [Example 105, 4-[4-(1,3-benzoxazol-2-yl)-4-methylpiperidin-1-yl]-1-methyl-2-oxo-1,2-dihydroquinoline-3-carboxamide] | 1.9 |
| CCC1(c2nc3ccccc3o2)CCN(c2c(C#N)c(=O)n(C)c3ccccc23)CC1 [Example 106, 4-[4-(1,3-benzoxazol-2-yl)-4-ethylpiperidin-1-yl]-1-methyl-2-oxo-1,2-dihydroquinoline-3-carbonitrile] | 0.9 |
| Cc1ccc2oc(C3CCN(c4c(C(N)=O)c(=O)n(C)c5ccccc45)CC3)nc2c1 [Example 107, 1-methyl-4-[4-(5-methyl-1,3-benzoxazol-2-yl)piperidin-1-yl]-2-oxo-1,2-dihydroquinoline-3-carboxamide] | 2.3 |
